Laboratory results taken from PubChem BioAssay (NCI).
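Method: 48-hour compound exposure of cells in 96-well plates, five concentrations, linear interpolation of endpoints. At the GI50, growth is halved. TGI marks complete inhibition of growth.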

Key:
Assay in all cases: NCI anticancer screen, dose series, 48 h
786-0 renal = system: 786-0 renal
A498 renal = system: A498 renal
A549 NSCLC = system: A549 NSCLC
ACHN renal = system: ACHN renal
BT-549 breast = system: BT-549 breast
CAKI-1 renal = system: CAKI-1 renal
CCRF-CEM leukemia = system: CCRF-CEM leukemia
COLO 205 colon = system: COLO 205 colon
DU-145 prostate = system: DU-145 prostate
EKVX NSCLC = system: EKVX NSCLC
HCC-2998 colon = system: HCC-2998 colon
HCT-116 colon = system: HCT-116 colon
HCT-15 colon = system: HCT-15 colon
HL-60(TB) leukemia = system: HL-60(TB) leukemia
HOP-62 NSCLC = system: HOP-62 NSCLC
HOP-92 NSCLC = system: HOP-92 NSCLC
HS 578T breast = system: HS 578T breast
HT29 colon = system: HT29 colon
IGROV1 ovarian = system: IGROV1 ovarian
K-562 leukemia = system: K-562 leukemia
KM12 colon = system: KM12 colon
LOX IMVI melanoma = system: LOX IMVI melanoma
M14 melanoma = system: M14 melanoma
MALME-3M melanoma = system: MALME-3M melanoma
MCF7 breast = system: MCF7 breast
MDA-MB-231 breast = system: MDA-MB-231 breast
MDA-MB-435 = system: MDA-MB-435
MOLT-4 leukemia = system: MOLT-4 leukemia
NCI-H226 lung = system: NCI-H226 lung
NCI-H23 lung = system: NCI-H23 lung
NCI-H460 lung = system: NCI-H460 lung
NCI-H522 lung = system: NCI-H522 lung
NCI/ADR-RES ovarian = system: NCI/ADR-RES ovarian
OVCAR-3 ovarian = system: OVCAR-3 ovarian
OVCAR-4 ovarian = system: OVCAR-4 ovarian
OVCAR-5 ovarian = system: OVCAR-5 ovarian
OVCAR-8 ovarian = system: OVCAR-8 ovarian
PC-3 prostate = system: PC-3 prostate
RPMI-8226 leukemia = system: RPMI-8226 leukemia
SF-268 CNS = system: SF-268 CNS
SF-295 CNS = system: SF-295 CNS
SF-539 CNS = system: SF-539 CNS
SK-MEL-2 melanoma = system: SK-MEL-2 melanoma
SK-MEL-28 melanoma = system: SK-MEL-28 melanoma
SK-MEL-5 melanoma = system: SK-MEL-5 melanoma
SK-OV-3 ovarian = system: SK-OV-3 ovarian
SN12C renal = system: SN12C renal
SNB-19 CNS = system: SNB-19 CNS
SNB-75 CNS = system: SNB-75 CNS
SR leukemia = system: SR leukemia
SW-620 colon = system: SW-620 colon
T-47D breast = system: T-47D breast
TK-10 renal = system: TK-10 renal
U251 CNS = system: U251 CNS
UACC-257 melanoma = system: UACC-257 melanoma
UACC-62 melanoma = system: UACC-62 melanoma
UO-31 renal = system: UO-31 renal

## CC(C)(C)Nc1nc2c(OCCc3ccccc3)cccn2c1-c1cccc(Oc2ccccc2)c1
786-0 renal
  GI50: 3.8 µM
  TGI: > 100 µM
A498 renal
  GI50: 8.91 µM
  TGI: 83.9 µM
A549 NSCLC
  GI50: 7.42 µM
  TGI: > 100 µM
ACHN renal
  GI50: 7.67 µM
  TGI: > 100 µM
BT-549 breast
  GI50: 3.48 µM
  TGI: 29.7 µM
CAKI-1 renal
  GI50: 9.11 µM
  TGI: > 100 µM
CCRF-CEM leukemia
  GI50: 7.07 µM
  TGI: > 100 µM
COLO 205 colon
  GI50: 12.3 µM
  TGI: 25.9 µM
DU-145 prostate
  GI50: 19.4 µM
  TGI: > 100 µM
EKVX NSCLC
  GI50: 4.54 µM
  TGI: > 100 µM
HCC-2998 colon
  GI50: 6.21 µM
  TGI: > 100 µM
HCT-116 colon
  GI50: 3.42 µM
  TGI: > 100 µM
HCT-15 colon
  GI50: 3.89 µM
  TGI: > 100 µM
HL-60(TB) leukemia
  GI50: 18.6 µM
  TGI: > 100 µM
HOP-62 NSCLC
  GI50: 15.1 µM
  TGI: > 100 µM
HOP-92 NSCLC
  GI50: 2.22 µM
  TGI: 7.08 µM
HS 578T breast
  GI50: 5.51 µM
  TGI: > 100 µM
HT29 colon
  GI50: 3.75 µM
  TGI: > 100 µM
IGROV1 ovarian
  GI50: 12.4 µM
  TGI: > 100 µM
K-562 leukemia
  GI50: 6.18 µM
  TGI: > 100 µM
KM12 colon
  GI50: 7.42 µM
  TGI: > 100 µM
LOX IMVI melanoma
  GI50: 8.54 µM
  TGI: 41.2 µM
M14 melanoma
  GI50: 18.6 µM
  TGI: > 100 µM
MALME-3M melanoma
  GI50: 8.12 µM
  TGI: > 100 µM
MCF7 breast
  GI50: 4.34 µM
  TGI: > 100 µM
MDA-MB-231 breast
  GI50: 18.7 µM
  TGI: 83 µM
MDA-MB-435
  GI50: 4.97 µM
  TGI: > 100 µM
MOLT-4 leukemia
  GI50: 11 µM
  TGI: > 100 µM
NCI-H226 lung
  GI50: 3.45 µM
  TGI: > 100 µM
NCI-H23 lung
  GI50: 5.86 µM
  TGI: > 100 µM
NCI-H460 lung
  GI50: 4.6 µM
  TGI: > 100 µM
NCI-H522 lung
  GI50: 6.95 µM
  TGI: > 100 µM
NCI/ADR-RES ovarian
  GI50: 7.51 µM
  TGI: > 100 µM
OVCAR-3 ovarian
  GI50: 3.71 µM
  TGI: > 100 µM
OVCAR-4 ovarian
  GI50: 4 µM
  TGI: > 100 µM
OVCAR-5 ovarian
  GI50: 17.8 µM
  TGI: > 100 µM
OVCAR-8 ovarian
  GI50: 14.8 µM
  TGI: > 100 µM
PC-3 prostate
  GI50: 4 µM
  TGI: > 100 µM
RPMI-8226 leukemia
  GI50: 3.4 µM
  TGI: > 100 µM
SF-268 CNS
  GI50: 8.03 µM
  TGI: > 100 µM
SF-295 CNS
  GI50: 5.54 µM
  TGI: > 100 µM
SF-539 CNS
  GI50: 16.3 µM
  TGI: 43.1 µM
SK-MEL-2 melanoma
  GI50: 5.16 µM
  TGI: 26.8 µM
SK-MEL-28 melanoma
  GI50: 4.87 µM
  TGI: > 100 µM
SK-MEL-5 melanoma
  GI50: 4.95 µM
  TGI: 17.6 µM
SK-OV-3 ovarian
  GI50: 24.2 µM
  TGI: > 100 µM
SN12C renal
  GI50: 5.17 µM
  TGI: > 100 µM
SNB-19 CNS
  GI50: 6.62 µM
  TGI: > 100 µM
SNB-75 CNS
  GI50: 5.53 µM
  TGI: > 100 µM
SR leukemia
  GI50: 12.3 µM
  TGI: > 100 µM
SW-620 colon
  GI50: 7.97 µM
  TGI: > 100 µM
T-47D breast
  GI50: 3.13 µM
  TGI: > 100 µM
TK-10 renal
  GI50: 26.9 µM
  TGI: > 100 µM
U251 CNS
  GI50: 3.89 µM
  TGI: > 100 µM
UACC-257 melanoma
  GI50: 4.1 µM
  TGI: > 100 µM
UACC-62 melanoma
  GI50: 3.43 µM
  TGI: 53.8 µM
UO-31 renal
  GI50: 3.13 µM
  TGI: 80.7 µM
